Test results taken from publication PMC8705783, “The Effect of Conjugation with Octaarginine, a Cell-Penetrating Peptide on Antifungal Activity of Imidazoacridinone Derivative” (International Journal of Molecular Sciences, 2021).
Converted amounts (≈) assume the structure as drawn. Like-named read-outs stand apart in the source and are kept apart here.

Key:
reference strains = assay: Antifungal activity, summary over reference strains; type: cell-based; design: key to Antifungal Activity (level): (−) Means no antifungal activity; (±) low activity; (+) moderate activity; (++) high activity at the concentration mentioned
yeast topoisomerase II [1] = target: T1, yeast topoisomerase II (Saccharomyces cerevisiae, UniProt P06786); assay: Yeast topoisomerase II relaxation assay; type: biochemical; conditions: supercoiled pBR322, tested at 1-200 μM
T1 sequence (P06786 whole entry): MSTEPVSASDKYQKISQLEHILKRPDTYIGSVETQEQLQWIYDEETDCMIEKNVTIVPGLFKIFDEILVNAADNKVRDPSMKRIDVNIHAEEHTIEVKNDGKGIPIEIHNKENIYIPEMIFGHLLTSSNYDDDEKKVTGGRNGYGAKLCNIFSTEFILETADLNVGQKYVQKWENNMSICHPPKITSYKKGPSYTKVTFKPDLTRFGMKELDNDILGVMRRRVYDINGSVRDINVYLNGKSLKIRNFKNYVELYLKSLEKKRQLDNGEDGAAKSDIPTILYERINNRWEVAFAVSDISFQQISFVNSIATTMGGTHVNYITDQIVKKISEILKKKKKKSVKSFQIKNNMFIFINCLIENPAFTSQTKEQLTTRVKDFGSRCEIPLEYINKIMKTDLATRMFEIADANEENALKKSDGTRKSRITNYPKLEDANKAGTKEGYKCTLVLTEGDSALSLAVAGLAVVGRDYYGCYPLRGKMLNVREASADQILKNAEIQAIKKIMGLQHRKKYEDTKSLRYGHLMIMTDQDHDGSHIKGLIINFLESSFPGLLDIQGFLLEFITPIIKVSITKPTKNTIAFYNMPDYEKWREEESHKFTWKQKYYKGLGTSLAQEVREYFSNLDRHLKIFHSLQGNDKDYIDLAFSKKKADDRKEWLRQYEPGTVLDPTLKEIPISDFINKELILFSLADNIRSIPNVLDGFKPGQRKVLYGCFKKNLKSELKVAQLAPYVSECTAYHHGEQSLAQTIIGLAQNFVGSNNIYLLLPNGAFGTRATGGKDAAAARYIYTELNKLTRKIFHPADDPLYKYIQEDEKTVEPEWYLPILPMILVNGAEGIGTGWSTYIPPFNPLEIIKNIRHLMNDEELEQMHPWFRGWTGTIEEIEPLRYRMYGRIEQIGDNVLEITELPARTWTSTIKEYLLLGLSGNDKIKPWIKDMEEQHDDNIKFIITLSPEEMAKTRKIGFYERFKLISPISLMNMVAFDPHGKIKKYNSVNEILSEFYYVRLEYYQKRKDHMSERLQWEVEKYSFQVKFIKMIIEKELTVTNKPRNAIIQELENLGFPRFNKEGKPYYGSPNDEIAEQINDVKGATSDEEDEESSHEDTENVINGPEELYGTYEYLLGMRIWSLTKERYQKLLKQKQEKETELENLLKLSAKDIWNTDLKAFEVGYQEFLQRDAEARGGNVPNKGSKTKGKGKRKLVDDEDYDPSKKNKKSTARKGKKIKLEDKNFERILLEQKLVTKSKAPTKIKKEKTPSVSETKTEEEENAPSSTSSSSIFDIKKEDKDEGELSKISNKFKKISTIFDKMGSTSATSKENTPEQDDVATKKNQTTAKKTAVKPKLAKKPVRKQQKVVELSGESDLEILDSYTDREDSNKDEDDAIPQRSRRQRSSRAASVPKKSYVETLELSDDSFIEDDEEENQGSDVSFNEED
Protocol: Due to the known activity of acridine and acridone derivatives as human topoisomerase inhibitors widely analysed for cancer chemotherapy, we decided to analyse the influence of Compound 1 as well as its R8 conjugate on the fungal equivalent of that enzyme. The relaxation of supercoiled plasmid DNA by yeast topoisomerase II (yTOPO II) was studied in the presence of different concentrations of both compounds.
The inhibition of yeast topoisomerase II was analysed according to the relaxation assay kit from Inspiralis (Inspiralis Limited, Norwich, UK). Briefly, 250 ng of supercoiled pBR322 DNA (Thermo Fisher Scientific, Waltham, MA, USA), 1 mM ATP (Inspiralis Limited, UK), and 1–200 μM of the analysed compound were mixed with reaction buffer (1 mM Tris-HCl (pH 7.9), 10 mM KCl, 0.5 mM MgCl2, 0.2 % (by volume) glycerol). The reaction was initiated by the addition of an enzyme, allowed to proceed at 30 °C for 30 min and terminated by addition of 40% (m/V) sucrose, 100 mM Tris-HCl pH 8, 10 mM EDTA, and 0.5 mg mL^−1 Bromophenol Blue. Two-step extraction with chloroform:isoamyl alcohol (24:1, by volume) and butanol water was performed and mixtures were analysed on 1% agarose gel in 1 × TAE buffer, 3h, 4.5 V cm^−1. Gel was stained in GelRed 3 × staining solution (Biotium, Fremont, CA, USA) for 30 min and photographed with Gel Doc XR+Gel Documentation System (Bio-Rad: Hercules, CA, USA).

yeast topoisomerase II [2] = target: T1, yeast topoisomerase II; assay: Formation of cleavable complexes in vitro; type: biochemical; conditions: 0.1-10 μM, pBR322 plasmid DNA
Protocol: Cleavage assay of yeast topoisomerase II was performed according to the formation of cleavable complexes kit from Inspiralis. The experimental conditions were the same as for the relaxation assay except for the amount of yeast topoisomerase II (16 times more enzyme was used). The reaction was initiated by the addition of the enzyme and allowed to proceed for 10 min at 30 °C. Then, 0.35% SDS and 0.3 mg mL^−1 proteinase K (A&A Biotechnology, Gdynia, Poland) was added, and the probes were incubated in 56 °C for 1 h. The reaction was terminated by the addition of 100 mM Tris-HCl pH 8, 10 mM EDTA, 0.5 mg mL^−1 Bromophenol Blue. Extraction with chloroform:isoamyl alcohol (24:1, by volume) was performed, and mixtures were analysed on the 1.2% agarose gel with 0.5 µg mL^−1 ethidium bromide in 1x TAE buffer, 18 h, 1.1 V cm^−1. Gel was photographed with the Gel Doc XR+Gel Documentation System.

HEK-293 = assay: cells; type: cell-based, human
Protocol: (§1) The investigated compounds were screened for their in vitro antiproliferative activity towards a human embryonic kidney cell line (HEK-293) and human liver cancer cell line (HEPG2) using colorimetric MTT.
(§2) The human embryonic kidney cell line (HEK-293) and human liver cancer cell line (HEPG2) were purchased from ATCC (Manassas, Virginia, USA). HEK-293 was cultured in Dulbecco’s Modified Eagle Medium (Corning, NY, USA) and HEPG2 in Minimum Essential Medium Eagle (Corning, NY, USA). For each cell line, the culture medium was supplemented with 10% fetal bovine serum, 2 mM L-glutamine, and antibiotics: penicillin 62.6 µg mL^−1 and streptomycin 40 µg mL^−1. The cells were cultured at the humidified atmosphere of 5% CO2/95% air and routinely tested for Mycoplasma contamination.
(§3) Antiproliferative activity of the compounds was determined by (3-(4,5-dimethylthiazol-2-yl)-2,5-diphenyltetrazolium bromide (MTT, Sigma-Aldrich, St. Louis, MO, USA) assay, which involves the assessment of cell viability by the measurement of the cellular oxidoreductase activity. Briefly, cells were seeded into 96-well culture plates and were allowed to adhere overnight. The investigated compounds were dissolved in DMSO and added to wells (1% final concentration of DMSO) in various concentrations. After 72 h incubation, 20 µL of MTT solution in PBS (4 mg mL^−1) was added to each well, and plates were incubated for an additional 3h in standard culture conditions. After that, the medium was aspirated, and formazan crystals were dissolved in DMSO. The absorbance was determined at 570 nm with a microplate reader (Asys UVM 340 Microplate Reader, Biochrom, Cambridge, UK). All experiments were performed three times independently in triplicate.

HEPG2 = assay: cells; type: cell-based, human
Protocol: as §1, §2, §3

[3] = test system: Candida albicans ATCC 10231
[4] = test system: Candida glabrata ATCC 90030
Candida krusei ATCC 6258 [5] = test system: Candida krusei ATCC 6258
[6] = test system: Candida parapsilosis ATCC 22019
[7] = test system: Saccharomyces cerevisiae ATCC 9763
[8] = test system: Candida albicans ATCC 10231; assay: microbe, parasite or virus in culture
[9] = test system: Candida glabrata ATCC 90030; assay: microbe, parasite or virus in culture; conditions: Nakaseomyces glabratus, ATCC90030, 24 h, pH 7
Candida krusei ATCC 6258 [10] = assay: microbe, parasite or virus in culture; conditions: Pichia kudriavzevii, ATCC6258, 24 h, pH 7
[11] = test system: Candida parapsilosis ATCC 22019; assay: microbe, parasite or virus in culture; conditions: Lodderomyces parapsilosis, ATCC22019, 24 h, pH 7
[12] = test system: Saccharomyces cerevisiae ATCC 9763; assay: microbe, parasite or virus in culture; conditions: ATCC9763, 24 h, pH 7
Candida albicans B3 [13] = assay: microbe, parasite or virus in culture
Candida albicans B4 [14] = assay: microbe, parasite or virus in culture
Candida albicans Gu4 [15] = assay: microbe, parasite or virus in culture
Candida albicans Gu5 [16] = assay: microbe, parasite or virus in culture
Candida albicans F2 [17] = assay: microbe, parasite or virus in culture
Candida albicans F5 [18] = assay: microbe, parasite or virus in culture
[19] = test system: C. albicans ATCC 10231 cells; assay: Fluorescence microscopy of uptake and accumulation; conditions: 256 μg mL^−1 (8 × MFC of Compound 1-R8)
Protocol: Candida albicans ATCC 10231 strain were grown in the YPG medium overnight (16–18 h) at 30 °C, washed twice with sterile phosphate-buffered saline (PBS) and resuspended in RPMI 1640 at a cell density of 2 × 10^7 cells mL^−1. The inoculum (5 mL) was added to 5 mL RPMI 1640 with 256 μg mL^−1 of tested compounds. After appropriate period of time, 2 mL of cell suspension was washed three times with sterile phosphate-buffered saline (PBS). If appropriate, cells where resuspended in 1 mL of PBS and 5 μL of 2 mg mL^−1 propidium iodide (PI, Sigma-Aldrich, St. Louis, MO, USA) were added and incubated for 30 min and then rinsed three times with PBS buffer. After that, cells were resuspended in 5 μL 90% (by volume) glycerol/10% (by volume) 1 × PBS and transferred to a microscopic slide. The cells were examined with the Olympus BX-60 fluorescence microscope (λex = 330–385 nm, λem ≥ 420 nm, lens × 40) equipped with the Olympus XC50 digital camera (Olympus Corporation, Tokyo, Japan) or LSM800 T-PMT confocal microscope with a CCD camera (ZEISS, Göttingen, Germany). Images were analysed and processed with cellSens Dimension and ZEN Blue software [47].

C. albicans ATCC 10231 = assay: microbe, parasite or virus in culture; type: cell-based; conditions: ATCC 10231
Protocol: (§4) To establish the possible mode of action for Compound 1-R8, we have analysed the killing activity and determined minimal fungicidal concentrations (MFCs) (Table 4). Additionally, killing kinetics analysis against pathogenic C. albicans ATCC 10231 was performed (Figure 2).
(§5) Minimum fungicidal concentrations (MFCs) were determined as described previously by spot assay. The MFC was determined as the lowest concentration of the test compound in which no recovery of microorganisms was observed.

C. glabrata DSM 11226 = assay: microbe, parasite or virus in culture; type: cell-based; conditions: DSM 11226
Protocol: as §4, §5

C. krusei DSM 6128 = assay: microbe, parasite or virus in culture; type: cell-based; conditions: DSM 6128
Protocol: as §4, §5

C. parapsilosis DSM 5784 = assay: microbe, parasite or virus in culture; type: cell-based; conditions: DSM 5784
Protocol: as §4, §5

S. cerevisiae ATCC 9763 = assay: Minimal fungicidal concentration, spot assay; type: cell-based; conditions: minimal fungicidal concentration that kills 99% of cells
Protocol: as §4, §5

Candida albicans B3 [20] = conditions: B3, 12 h
Candida albicans B4 [21] = conditions: B4, 12 h
Candida albicans Gu4 [22] = conditions: Gu4, 12 h
Candida albicans Gu5 [23] = conditions: Gu5, 12 h
Candida albicans F2 [24] = conditions: F2, 12 h
Candida albicans F5 [25] = conditions: F5, 12 h
[26] = test system: reference and fluconazole-resistant clinical strains; conditions: 12 h
yeast topoisomerase II [27] = target: T1, yeast topoisomerase II; design: method as in PMID 33572407; conditions: read-out: IC50 (yeast topoisomerase II relaxation); cited from earlier work

## NCCNc1ccc2ncn3c4ccc(O)cc4c(=O)c1c23 [Compound 1, 5-((2-Aminoethyl)amino)-8-hydroxy-6H-imidazo[4,5,1-de]acridin-6-one]
Reference strains; Table 3
  Antifungal Activity (level): −
Reference strains; as reported in Table 1
  antifungal activity: no antifungal activity was observed
Yeast topoisomerase II [1]
  concentration that totally inhibited yeast topoisomerase II-mediated relaxation: 50 µM
Yeast topoisomerase II [2]
  formation of DNA–yeast topoisomerase II cleavable complexes: stimulated the formation of DNA–yeast topoisomerase II cleavable complexes
HEK-293; Homo sapiens, HEK293, 72 h treatment, MTT, ± SD, read-out: IC50 (antiproliferative activity)
  IC50: 550 ± 125 nM
HEPG2; Homo sapiens, HEPG2, 72 h treatment, MTT, ± SD, read-out: IC50 (antiproliferative activity)
  IC50: 364 ± 13 nM
[3]; HEK293 vs Candida albicans ATCC 10231, MIC converted to micromolar
  IC50 HEK293/MIC90 (mycostatic selectivity index): <0.0058
[3]; HEPG2 vs Candida albicans ATCC 10231
  IC50 HEPG2/MIC90 (mycostatic selectivity index): <0.0038
[4]; HEK293 vs Candida glabrata ATCC 90030
  IC50 HEK293/MIC90 (mycostatic selectivity index): <0.0058
[4]; HEPG2 vs Candida glabrata ATCC 90030
  IC50 HEPG2/MIC90 (mycostatic selectivity index): <0.0038
Candida krusei ATCC 6258 [5]; HEK293 vs Candida krusei ATCC 6258
  IC50 HEK293/MIC90 (mycostatic selectivity index): <0.0058
Candida krusei ATCC 6258 [5]; HEPG2 vs Candida krusei ATCC 6258
  IC50 HEPG2/MIC90 (mycostatic selectivity index): <0.0038
[6]; HEK293 vs Candida parapsilosis ATCC 22019
  IC50 HEK293/MIC90 (mycostatic selectivity index): <0.0058
[6]; HEPG2 vs Candida parapsilosis ATCC 22019
  IC50 HEPG2/MIC90 (mycostatic selectivity index): <0.0038
[7]; HEK293 vs Saccharomyces cerevisiae ATCC 9763
  IC50 HEK293/MIC90 (mycostatic selectivity index): <0.0058
[7]; HEPG2 vs Saccharomyces cerevisiae ATCC 9763
  IC50 HEPG2/MIC90 (mycostatic selectivity index): <0.0038
[8]; ATCC10231
  MIC90: > 64 µg/mL
[8]; ATCC10231, 24 h, pH 7
  MIC90: > 64 µg/mL
[9]
  MIC90: > 64 µg/mL
Candida krusei ATCC 6258 [10]
  MIC90: > 64 µg/mL
[11]
  MIC90: > 64 µg/mL
[12]
  MIC90: > 64 µg/mL
Candida albicans B3 [13]
  MIC90: > 64 µg/mL
Candida albicans B4 [14]
  MIC90: > 64 µg/mL
Candida albicans Gu4 [15]
  MIC90: > 64 µg/mL
Candida albicans Gu5 [16]
  MIC90: > 64 µg/mL
Candida albicans F2 [17]
  MIC90: > 64 µg/mL
Candida albicans F5 [18]
  MIC90: > 64 µg/mL
[19]
  uptake and accumulation in fungal cells: no significant accumulation

## N=C(N)NCCC[C@H](NC(=O)[C@H](CCCNC(=N)N)NC(=O)[C@H](CCCNC(=N)N)NC(=O)[C@H](CCCNC(=N)N)NC(=O)[C@H](CCCNC(=N)N)NC(=O)[C@H](CCCNC(=N)N)NC(=O)[C@H](CCCNC(=N)N)NC(=O)[C@@H](N)CCCNC(=N)N)C(=O)NCCNc1ccc2ncn3c4ccc(O)cc4c(=O)c1c23 [Compound 1-R8]
C. albicans ATCC 10231
  MFC: 32 µg/mL (≈ 20.7 µM)
C. glabrata DSM 11226
  MFC: 128 µg/mL (≈ 82.9 µM)
C. krusei DSM 6128
  MFC: 16 µg/mL (≈ 10.4 µM)
C. parapsilosis DSM 5784
  MFC: 8 µg/mL (≈ 5.18 µM)
S. cerevisiae ATCC 9763
  MFC: 2 µg/mL (≈ 1.3 µM)
HEK-293; 72 h
  IC50: 1390 ± 99 nM
HEPG2; 72 h
  IC50: 991 ± 97 nM
[3]; ATCC 10231, 24 h, pH 7
  MIC90: 1 µg/mL (≈ 0.648 µM)
[4]; ATCC 90030, 24 h, pH 7
  MIC90: 4 µg/mL (≈ 2.59 µM)
Candida krusei ATCC 6258 [5]; ATCC 6258, 24 h, pH 7
  MIC90: 0.5 µg/mL (≈ 0.324 µM)
[6]; ATCC 22019, 24 h, pH 7
  MIC90: 0.25 µg/mL (≈ 0.162 µM)
[7]; ATCC 9763, 24 h, pH 7
  MIC90: 1 µg/mL (≈ 0.648 µM)
Candida albicans B3 [20]
  MIC90: 2 µg/mL (≈ 1.3 µM)
Candida albicans B4 [21]
  MIC90: 2 µg/mL (≈ 1.3 µM)
Candida albicans Gu4 [22]
  MIC90: 2 µg/mL (≈ 1.3 µM)
Candida albicans Gu5 [23]
  MIC90: 2 µg/mL (≈ 1.3 µM)
Candida albicans F2 [24]
  MIC90: 1 µg/mL (≈ 0.648 µM)
Candida albicans F5 [25]
  MIC90: 1 µg/mL (≈ 0.648 µM)
[26]
  MICs: ≤ 4 µg/mL

## COc1cc(NS(C)(=O)=O)ccc1Nc1c2ccccc2nc2ccccc12 [m-AMSA]
Yeast topoisomerase II [27]
  IC50: > 200000 nM
